{"source": "ChEMBL document CHEMBL2073804", "about": "“Transport of the beta -O-glucuronide conjugate of the tobacco-specific carcinogen 4-(methylnitrosamino)-1-(3-pyridyl)-1-butanol (NNAL) by the multidrug resistance protein 1 (MRP1). Requirement for glutathione or a non-sulfur-containing analog” (J Biol Chem, 2001)", "biological_target": "ATP-binding cassette sub-family C member 2 (Homo sapiens, UniProt Q92887)", "sequence (Q92887 whole entry)": "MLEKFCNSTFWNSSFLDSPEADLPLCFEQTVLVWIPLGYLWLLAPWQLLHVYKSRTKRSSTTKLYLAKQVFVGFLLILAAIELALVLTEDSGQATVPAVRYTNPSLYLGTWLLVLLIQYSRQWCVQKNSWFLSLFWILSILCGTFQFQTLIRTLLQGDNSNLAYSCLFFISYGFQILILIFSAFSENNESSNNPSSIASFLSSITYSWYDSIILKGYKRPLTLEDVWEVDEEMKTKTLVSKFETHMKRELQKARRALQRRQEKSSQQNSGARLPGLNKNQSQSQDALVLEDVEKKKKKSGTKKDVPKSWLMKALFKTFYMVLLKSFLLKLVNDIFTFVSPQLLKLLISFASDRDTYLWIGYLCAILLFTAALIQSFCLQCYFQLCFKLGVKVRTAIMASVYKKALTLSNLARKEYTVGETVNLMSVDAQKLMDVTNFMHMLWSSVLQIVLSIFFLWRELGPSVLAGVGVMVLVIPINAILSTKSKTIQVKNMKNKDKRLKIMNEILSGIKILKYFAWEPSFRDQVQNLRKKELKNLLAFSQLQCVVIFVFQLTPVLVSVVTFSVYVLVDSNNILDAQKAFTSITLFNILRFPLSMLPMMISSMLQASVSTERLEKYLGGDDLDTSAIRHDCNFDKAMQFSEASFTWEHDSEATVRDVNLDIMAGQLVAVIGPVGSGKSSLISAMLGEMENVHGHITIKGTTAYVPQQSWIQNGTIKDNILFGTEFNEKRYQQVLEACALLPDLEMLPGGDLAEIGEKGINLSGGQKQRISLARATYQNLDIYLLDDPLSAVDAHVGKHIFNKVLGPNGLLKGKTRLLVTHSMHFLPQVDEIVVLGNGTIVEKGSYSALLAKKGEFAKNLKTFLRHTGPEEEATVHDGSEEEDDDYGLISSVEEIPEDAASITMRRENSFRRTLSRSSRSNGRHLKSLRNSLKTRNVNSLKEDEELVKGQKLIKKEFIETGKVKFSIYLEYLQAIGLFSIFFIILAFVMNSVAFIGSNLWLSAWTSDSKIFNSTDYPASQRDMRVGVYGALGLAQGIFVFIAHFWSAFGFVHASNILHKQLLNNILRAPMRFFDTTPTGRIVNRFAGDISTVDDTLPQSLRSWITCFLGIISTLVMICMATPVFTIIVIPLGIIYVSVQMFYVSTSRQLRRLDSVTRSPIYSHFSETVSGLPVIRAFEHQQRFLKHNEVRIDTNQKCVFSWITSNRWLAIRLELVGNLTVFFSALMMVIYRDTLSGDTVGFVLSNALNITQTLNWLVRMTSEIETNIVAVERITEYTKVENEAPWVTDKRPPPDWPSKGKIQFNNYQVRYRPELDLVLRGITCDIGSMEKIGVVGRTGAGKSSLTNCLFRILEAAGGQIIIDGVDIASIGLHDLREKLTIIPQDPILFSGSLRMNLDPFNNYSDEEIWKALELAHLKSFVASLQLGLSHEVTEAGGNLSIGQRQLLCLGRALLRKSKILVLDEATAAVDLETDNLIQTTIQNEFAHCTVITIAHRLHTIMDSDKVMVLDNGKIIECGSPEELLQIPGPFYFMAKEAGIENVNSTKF", "experiment": "TP_TRANSPORTER: uptake in membrane vesicle from MRP2-expressing HEK293T cells", "assay_type": "functional, cell membranes", "details": "hek293"}
{"smiles": "CN(CCCC(C[C@@H]1O[C@H](C(=O)O)[C@@H](O)[C@H](O)[C@H]1O)c1cccnc1)N=O", "note": "(stereo partly specified)", "values": [{"measurement": "Activity", "result": "substrate [+]"}]}
